Reference: patent US10258664B2, “Methods and compositions for treating pain” (MannKind Corporation, priority 2011, dated 2019)
Residues, ends and D or L forms follow the SMILES beside them.

Tests used:
[1] = tested on: mice; experiment: Conditioned place preference (CPP) study; conditions: 0.125 mg insufflated; FIG. 5
Description: In a conditioned place preference (CPP) study to evaluate the “reward” or “aversive” value of the drug, mice are conditioned to associate one compartment of the apparatus with treatment. […] The experiments were conducted similarly as described in the previous examples. […] To test placebo effect, additional mice were insufflated with FDKP (TECHNOSPHERE®) powder (0.5 mg) without any peptide.

[2] = tested on: mice; experiment: Spontaneous locomotion and respiration in the comprehensive laboratory animal monitoring system (CLAMS); conditions: 0.125 mg by insufflation; for ambulation (spontaneous locomotion): FIG. 4A; for respiration rate: FIG. 4B
[3] = tested on: mice; experiment: 55° C. warm-water tail withdrawal (tail-flick) assay; assay type: in vivo, mouse; conditions: FIG. 1; for plateau of antinociceptive effect: insufflated
Description: Antinociceptive effect was tested in a mouse tail-withdrawal (“tail-flick,” Aldrich et al. 2009) assay in which the tail of a restrained mouse is exposed to water at 55° C. […] Durations shorter than the maximum are reported as a percentage of the time limit. This tail-flick test (also known as the 55° C. warm-water tail withdrawal assay) is an industry acceptable, nonclinical model for assessing the efficacy of analgesics in treating acute pain. To test placebo effect, FDKP (TECHNOSPHERE®) powder (0.5 mg) without any peptide was used in the study. Each animal is tested for baseline tail-withdrawal latency prior to drug administration. Latency to withdraw the tail was subsequently measured in 10 minutes post-drug administration intervals as indicated. A maximum response time of 15 seconds was utilized to prevent tissue damage. Data reported as percent antinociception, as calculated by the following equation: % antinociception is equal to 100 times (test latency minus baseline latency) divided by (15 minus baseline latency).
The tetrapetide, (D)Phe-(D)Phe-(D)Nle-(D)Arg-NH2 (SEQ ID NO: 2, Compound 2) was administered to mice by intraperitoneal (i.p.) injection (3 mg/kg) in a saline solution, and by pulmonary insufflation of a dry powder formulation containing FDKP at various doses, 0.25 mg, 0.125 mg, 0.013 mg, 1.25 μg and 0.13 μg. The tail-flick test was performed for a period of time after administration. […]

[4] = tested on: patient; experiment: Patient examples: inhaled analgesic composition, patient-reported pain; assay type: in vivo, human
Description: patient one reports headache pain to their doctor. […] The analgesic composition is 15% peptide. The analgesic composition is administered with a reusable inhaler calibrated to provide a dose of 5 mg/kg of body weight.
A patient undergoing chemotherapy reports stomach pain to their doctor. […] The analgesic composition is 15% peptide. The analgesic composition is administered with a reusable inhaler calibrated to provide a dose of 5 mg/kg of body weight.
(§1) A patient reports back pain to their doctor. Following examination of the patient, the doctor prescribes an analgesic composition containing a FDKP/Trp-(D)Pro-Ser-Phe-NH2 (SEQ ID NO: 3, Compound 3), composition prepared as described in the previous Examples. The analgesic composition is 15% peptide. The analgesic composition is administered with a reusable inhaler calibrated to provide a dose of 4 mg/kg of body weight.
as §1, with “dental” for “back”, “an Na2FDKP/Ac-His-(D)Phe-Arg-(D)Trp-Gly-NH2” for “a FDKP/Trp-(D)Pro-Ser-Phe-NH2”, “6,” for “3,”, “6)” for “3),”, “10%” for “15%”, “7” for “4”
A patient reports pain due to multiple sclerosis to their doctor. […] The analgesic composition is 20% peptide. The analgesic composition is administered with a reusable inhaler calibrated to provide a dose of 3 mg/kg of body weight.
patient two reports muscle pain to their doctor. Following examination of the patient, the doctor prescribes an analgesic composition containing a FDKP/Ac-His-(D)Phe-Arg-(D)Trp-Gly-NH2 (SEQ ID NO: 6, Compound 6) composition prepared as described in the previous Examples. The analgesic composition is 15% peptide. The analgesic composition is administered with a reusable inhaler calibrated to provide a dose of 5 mg/kg of body weight.
A patient reports pain from a broken arm to their doctor. Following examination of the patient, the doctor prescribes an analgesic composition containing a Na2FDKP/Trp-(D)Ser-Ser-Phe-NH2 (SEQ ID NO: 4, Compound 4) composition prepared as described in the previous Examples. The analgesic composition is 25% peptide. The analgesic composition is administered with a reusable inhaler calibrated to provide a dose of 2 mg/kg of body weight.
A patient reports their low pain threshold to their dentist. Following examination of the patient and prior to the dental procedure, the dentist administers an analgesic composition containing a FDKP/Ac-Nle-Gln-His-(D)Phe-Arg-(D)Trp-Gly-NH2 (SEQ ID NO:7, Compound 7) composition prepared as described in the previous Examples. The analgesic composition is 10% peptide. The analgesic composition is administered with a single-use inhaler designed to provide a dose of 5 mg/kg of body weight.

CC[C@@H](C)[C@@H](NC(=O)[C@@H](Cc1ccccc1)NC(=O)[C@H](N)Cc1ccccc1)C(=O)N[C@H](CCCNC(=N)N)C(N)=O [Compound 1, (D)Phe-(D)Phe-(D)Ile-(D)Arg-NH2]
place preference for the drug-paired compartment [1]: no preference for the paired compartment | ambulation (spontaneous locomotion) [2]: comparable to animals receiving placebo | respiration rate [2]: comparable to animals receiving placebo

CCCC[C@@H](NC(=O)[C@@H](Cc1ccccc1)NC(=O)[C@H](N)Cc1ccccc1)C(=O)N[C@H](CCCNC(=N)N)C(N)=O [Compound 2, (D)Phe-(D)Phe-(D)Nle-(D)Arg-NH2] (HELM PEPTIDE1{[dF].[dF].[CCCC[C@@H](N[*:1])C(=O)[*:2]].[dR].[am]}$$$$V2.0; N-terminus assumed)
antinociception effect versus time ([3]; all doses: i.p. 3 mg/kg in saline and insufflated FDKP dry powder 0.25 mg to 0.13 μg): rapidly provided near-complete antinociception | time course of antinociceptive effect ([3]; i.p. injection 3 mg/kg in saline): decayed almost linearly with time | dose response of antinociception ([3]; insufflated FDKP dry powder 0.25 mg to 0.13 μg): clear dose response was evident | plateau of antinociceptive effect ([3]; 0.125 mg dose): approximately 30 minutes | plateau of antinociceptive effect ([3]; 0.25 mg dose): 50 to 55 min | place preference for the drug-paired compartment [1]: no preference for the paired compartment | patient-reported headache pain ([4]; FDKP composition, 15% peptide, inhaled 5 mg/kg, person one): elimination of their headache pain | patient-reported pain due to multiple sclerosis ([4]; Na2FDKP composition, 20% peptide, inhaled 3 mg/kg, person): elimination of their multiple sclerosis pain | ambulation (spontaneous locomotion) [2]: comparable to animals receiving placebo | respiration rate [2]: comparable to animals receiving placebo

NC(=O)[C@H](Cc1ccccc1)NC(=O)[C@H](CO)NC(=O)[C@H]1CCCN1C(=O)[C@@H](N)Cc1c[nH]c2ccccc12 [Compound 3, Trp-(D)Pro-Ser-Phe-NH2] (HELM PEPTIDE1{W.[dP].S.F.[am]}$$$$V2.0)
patient-reported back pain ([4]; FDKP composition, 15% peptide, inhaled 4 mg/kg, person): elimination of their back pain

NC(=O)[C@H](Cc1ccccc1)NC(=O)[C@H](CO)NC(=O)[C@@H](CO)NC(=O)[C@@H](N)Cc1c[nH]c2ccccc12 [Compound 4, Trp-(D)Ser-Ser-Phe-NH2] (HELM PEPTIDE1{W.[dS].S.F.[am]}$$$$V2.0)
patient-reported pain from a broken arm ([4]; Na2FDKP composition, 25% peptide, inhaled 2 mg/kg, person): elimination of their pain

CN1CC[C@]23c4c5ccc(O)c4O[C@H]2[C@@H](O)C=C[C@H]3[C@H]1C5 [morphine, reference compound]
place preference for the drug-paired compartment [1]: strong preference for the associated compartment | ambulation (spontaneous locomotion) [2]: locomotor hyperactivity | respiration rate [2]: depress the rate of respiration

Ac-His-(D)Phe-Arg-(D)Trp-Gly-NH2 (HXRXG; HELM PEPTIDE1{[ac].H.[dF].R.[dW].G.[am]}$$$$V2.0; SMILES CC(=O)N[C@@H](Cc1c[nH]cn1)C(=O)N[C@H](Cc1ccccc1)C(=O)N[C@@H](CCCNC(=N)N)C(=O)N[C@H](Cc1c[nH]c2ccccc12)C(=O)NCC(N)=O) [Compound 6]
patient-reported muscle pain ([4]; FDKP composition, 15% peptide, inhaled 5 mg/kg, person two): elimination of their muscle pain | patient-reported dental pain ([4]; Na2FDKP composition, 10% peptide, inhaled 7 mg/kg, person): elimination of their dental pain

Ac-Nle-Gln-His-(D)Phe-Arg-(D)Trp-Gly-NH2 [Compound 7]
patient-reported pain during dental procedure ([4]; FDKP composition, 10% peptide, single-use inhaler 5 mg/kg, given before procedure, person): no pain during the dental procedure
